Measurements from patent US8163805B2, “Small molecule antagonists of Bcl-2 family proteins” (The Regents of the University of Michigan, priority 2001, dated 2012).
Like-named read-outs stand apart in the source and are kept apart here.

How the values were obtained:
[1] = system: PC-3 prostate cancer cell line; assay: Annexin V-FITC/PI apoptosis with TXT or CDDP, PC-3; assay type: cell-based, human; conditions: PC-3, 48 hrs
Text: The present invention is not limited to any mechanism. Indeed, a mechanistic understanding of the invention is unnecessary to practice (make and use) the present compositions and methods.

UM-SCC-17B = assay: 6-day MTT cell growth, UM-SCC-17B; assay type: cell-based, human; conditions: read-out: IC50, inhibition of cell growth
Method: (§1) UM-SCC and human fibroblast cell lines were continuously exposed to varying concentrations of (−)-gossypol in 6-day MTT cell survival assays. Control wells contained media (DMEM) with vehicle alone. For each data point n=5.
(§2) Ten squamous cell carcinoma cell lines established at the University of Michigan (UM-SCC) and three human fibroblast lines were grown in Dulbecco's modified Eagle's medium (DMEM) supplemented with 10% fetal bovine serum. UM-SCC cell lines originated from the larynx (n=2; UM-SCC-12, -23), oral cavity/oropharynx (n=5; UM-SCC-1, -6, -14A, -74B, -81B), hypopharynx (n=1; UM-SCC-22A) and metastases from laryngeal cancers (n=2; UM-SCC-17B, -25). Human fibroblast cell lines originated from surgical specimens (fibroblast cell lines 2 and 3) and neonatal foreskin samples (fibroblast cell line 1).
(§3) Logarithmically growing cell lines were cultured, washed, counted, and plated at 5,000-15,000 cells per well in duplicate wells of 96-well plates and incubated in DMEM overnight. […] The MTT assay measures cell survival based on mitochondrial conversion of MTT from a soluble tetrazolium salt into an insoluble colored formazan precipitate, which is dissolved in dimethyl sulfoxide and quantitated by spectrophotometry. […] Percent absorbance relative to control was plotted as a linear function of drug concentration.

[2] = system: A549 non-small cell lung carcinoma xenograft; assay: A549 non-small cell lung carcinoma xenograft, (−)-gossypol with paclitaxel; conditions: Table 13; combinations of G- with paclitaxel at 7.5 mg/kg
UM-SCC-6 [3] = assay: 6-day MTT cell growth, UM-SCC-6; assay type: cell-based, human; conditions: read-out: IC50, inhibition of cell growth
Method: as §1, §2, §3

UM-SCC-1 = assay: Flow cytometric TUNEL apoptosis assay, UM-SCC-1; assay type: cell-based, human; conditions: 10 μM, 48-hour
Method: (§4) Briefly, FIGS. 24A-24C show apoptosis after (−)-gossypol as measured by a fluorescent flow cytometric TUNEL assay. Open peaks represent BrdU labeling of untreated cells. Shaded peaks indicate BrdU labeling of cell populations following 48-hour treatment with 10 μM (−)-gossypol; FIG. 24A, UM-SCC-cell lines with wild type p53; FIG. 24B, UM-SCC-cell lines with mutant p53; and FIG. 24C normal fibroblast cells.
(§5) Apoptosis of UM-SCC cell lines following (−)-gossypol treatment was quantitatively detected by enzymatic labeling of DNA strand breaks using terminal deoxynucleotidyltransferase (TdT) and Alexa Fluor-BrdUTP, known as the TdT-UTP nick end-labeling (TUNEL) assay by flow cytometry. Cells were exposed to (−)-gossypol for 48 hours, harvested, fixed and TUNEL stained according to the manufacturer's protocol (Molecular Probes Inc., Eugene, Oreg.). Ten thousand cells were analyzed per sample using excitation of Alexa Fluor at 488 nm. Apoptotic index (AI) was defined as percent of apoptotic cells in the treatment population minus that in the vehicle control population.

PARP protein = PARP protein cleavage; assay type: cell-based; conditions: compared under identical doses
[4] = system: androgen-independent prostate PC-3 xenograft; assay: PC-3 xenograft, (−)-gossypol and radiation (Example 20); assay type: in vivo, nude mice
Method: In this experiment, 60 male 5 to 6 week old NCI athymic NCr-nu/nu nude mice were inoculated in each flank with an injection of about 5×10^6 PC-3 cells. The best 40 xenograft recipients were used. Tumors averaged about 70 mm^3. (−)-Gossypol compounds were first dissolved in ethanol and diluted with sterile water within 5 min to a final ethanol concentration of 10% prior to each administration. Irradiated test animals were restrained, placed under the X-ray head, and covered with lead shields to ensure that the tumor area was exposed to radiation. All oral administrations of (−)-gossypol and 10% alcohol were given by gavage.
The 40 best xenograft mice were divided into experimental groups as follows: radiation only (Groups 1 and 2), 2 Gy administered 5 times/week for 3 weeks, and daily oral administration of 10% alcohol (as vehicle control); radiation plus gossypol (Groups 3 and 4), 2 Gy administered 5 times a week for 3 weeks, and 10 mg/kg of (−)-gossypol administered orally 5 times/week for 4 weeks (8 mice each Group); gossypol only (Groups 5 and 6), 10 mg/kg (−)-gossypol administered orally every day for 4 weeks (8 mice each Group); vehicle control (Groups 7 and 8), daily oral administration of 10% alcohol (8 mice each Group as vehicle control); large tumor animals (combination of Groups 9-12), tumors allowed to reach 500 mm^3.
Other remaining tumors in this group appear pale yellowish and soft as compared with that in control group with hard solid and reddish appearance, indicating tumor blood supply was inhibited.

UM-SCC-22A = assay: 6-day MTT cell growth, UM-SCC-22A; assay type: cell-based, human; conditions: read-out: IC50, inhibition of cell growth
Method: as §1, §2, §3

UM-SCC-6 [5] = assay: Flow cytometric TUNEL apoptosis assay, UM-SCC-6; assay type: cell-based, human; conditions: 10 μM, 48-hour
Method: as §4, §5

UM-SCC-74B = assay: 6-day MTT cell growth, UM-SCC-74B; assay type: cell-based, human; conditions: read-out: IC50, inhibition of cell growth
Method: as §1, §2, §3

UM-SCC-25 = assay: 6-day MTT cell growth, UM-SCC-25; assay type: cell-based, human; conditions: read-out: IC50, inhibition of cell growth
Method: as §1, §2, §3

Bcl-XL = biological target: T1, Bcl-XL (Homo sapiens, UniProt Q07817, DEL45-84); assay: 15N HSQC NMR binding to Bcl-XL
T1 construct: His-tag (N); made in house

Bcl-2 = biological target: T2, Bcl-2 (Homo sapiens, UniProt P10415); assay: FP binding assay, Flu-Bad-25 peptide and GST-fusion Bcl-2 (FIG. 4, 45); conditions: FIG. 4
T2 construct: purchased Santa Cruz Biotechnology

[6] = Table 17 (content identical to Table 18)
[7] = Table 18, PC-3 xenograft, (−)-gossypol 10 mg/kg orally for 4 weeks, radiation 2 Gy 5 times/week
[8] = 8 Gy radiation with 4 μM gossypol
[9] = 8 Gy radiation with 5 μM gossypol

T1 sequence (Q07817 with tags, fused parts or gaps DEL45-84 limits assumed): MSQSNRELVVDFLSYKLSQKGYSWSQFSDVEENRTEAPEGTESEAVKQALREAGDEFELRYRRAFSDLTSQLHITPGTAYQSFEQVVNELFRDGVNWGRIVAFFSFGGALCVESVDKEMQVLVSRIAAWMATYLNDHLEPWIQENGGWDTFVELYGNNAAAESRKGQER
T2 sequence (P10415 1-205 limits assumed): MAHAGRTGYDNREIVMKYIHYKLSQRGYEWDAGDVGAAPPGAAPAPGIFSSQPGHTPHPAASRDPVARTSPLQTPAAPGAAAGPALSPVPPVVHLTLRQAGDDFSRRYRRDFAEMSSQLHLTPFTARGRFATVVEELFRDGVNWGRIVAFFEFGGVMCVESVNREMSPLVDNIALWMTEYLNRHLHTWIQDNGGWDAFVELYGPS

Cc1cc2c(C(C)C)c(O)c(O)c(C=O)c2c(O)c1-c1c(C)cc2c(C(C)C)c(O)c(O)c(C=O)c2c1O [(−)-gossypol]
effect on activity of docetaxel and cisplatin [1]: enhanced the activities of docetaxel and cisplatin (CDDP) in inhibiting cell growth and inducing apoptosis
IC50 (UM-SCC-17B): 5 µM
toxicity by bodyweight measurements (PC-3 xenograft; (−)-gossypol 10 mg/kg with or without radiation): no significant toxicity
antitumor effect (PC-3 xenograft; (−)-gossypol alone, 10 mg/kg oral, 4 weeks): minimal antitumor effect
tumor growth inhibition compared with vehicle control, day 39 (PC-3 xenograft; Table 14, (−)-gossypol 10 mg/kg p.o. in combination with radiation 2 Gy per day, total 30 Gy): achieved 93% tumor growth
tumor growth inhibition, day 39 (PC-3 xenograft; Table 14, PC-3 flank xenografts (~150 mm^3 at start), (−)-gossypol 10 mg/kg p.o. 5 times q week for 4 weeks, alone, not significant): regimen (about 20%, P = 0.3 or 0.7,
Tumor Growth Delay (T − C Days) (PC-3 xenograft; [6]): 0 days
Tumor Growth Inhibition (T/C %) (PC-3 xenograft; [6]): 98.6%
Tumor Growth Delay (T − C Days) (PC-3 xenograft; [7]): 0 days
Tumor Growth Inhibition (T/C %) (PC-3 xenograft; [7]): 98.6%
tumor growth inhibition compared with vehicle control [2]: 76% tumor growth inhibition as
IC50 (UM-SCC-6 [3]): 11 µM
apoptotic index (AI) (UM-SCC-1): 90.1%
cleavage of PARP protein (PARP protein): more cleavage of PARP protein
tumors with complete regression ([4]; (−)-gossypol 10 mg/kg p.o. q.d.×5 4 weeks + X-ray 2 Gy q.d.×5 3 weeks): At least 10 out of 16
tumor growth inhibition compared with vehicle control, day 37 ([4]; Table 15, (−)-gossypol 10 mg/kg p.o. in combination with radiation 2 Gy per day, total 30 Gy): achieved 91.5% tumor growth
complete tumor regression, number of tumors ([4]; Table 15, combination of (−)-gossypol with radiation, out of 16 tumors): regression in 10 out of 16 tumors in
IC50 (UM-SCC-22A): 3 µM
apoptotic index (AI) (UM-SCC-6 [5]): 80.3%
Combination Index (CI) (PC-3 cells; [8]): 0.34
Dose Reduction Index (DRI) (PC-3 cells; [8]): 4.3
Combination Index (CI) (PC-3 cells; [9]): 0.27
Dose Reduction Index (DRI) (PC-3 cells; [9]): 6.1
reduction in colony formation from controls (PC-3 cells; with 6 Gy X-ray): 10 fold
reduction in colony formation from controls (PC-3 cells; with 8 Gy X-ray): 20 fold
IC50 (UM-SCC-74B): 4 µM
IC50 (UM-SCC-25): 8 µM
binding to Bcl-XL by NMR (Bcl-XL): bind to the BH3 binding groove in Bcl-XL
inhibition of binding between Bid BH3 peptide and Bcl-2 (Bcl-2): directly inhibit binding between Bid BH3 peptide and Bcl-2
